The values below come from patent US7879852B2, “Melanocortin receptor agonists” (LG Life Sciences Ltd., priority 2006, dated 2011).

The target of this assay is T1, human melanocortin receptor 4 (MC4R) (Homo sapiens, UniProt P32245).
T1 construct: expressed in transfected cells; grown with 200 ug/ml Geneticin
T1 sequence (P32245 whole entry): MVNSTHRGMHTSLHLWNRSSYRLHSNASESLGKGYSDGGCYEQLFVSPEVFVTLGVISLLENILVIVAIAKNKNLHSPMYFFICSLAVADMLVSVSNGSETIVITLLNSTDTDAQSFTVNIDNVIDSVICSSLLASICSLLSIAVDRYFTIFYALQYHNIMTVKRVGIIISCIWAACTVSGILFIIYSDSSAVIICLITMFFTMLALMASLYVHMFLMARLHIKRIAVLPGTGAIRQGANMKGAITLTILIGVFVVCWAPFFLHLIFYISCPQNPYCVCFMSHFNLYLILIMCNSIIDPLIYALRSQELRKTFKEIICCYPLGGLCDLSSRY
In words: Luciferase assay. In kind it is cell-based. The note with it: agonistic activity at MC4R (Table 18); patent does not state whether luciferase or cAMP assay. The protocol: Cell lines expressing human melanocortin receptor 4 (MC4R) were dissociated from tissue culture dishes by rinsing with Ca^++, Mg^++ free DPBS, treated with 1× Trypsin/EDTA solution for 1 min at 37° C., and resuspended with DMRM (GIBCO-BRL) supplemented with 10% FBS. The cells were counted and diluted with DMEM supplemented with 10% FBS and 200 ug/ml of Geneticin to […]. 90 ul of cell suspension was plated onto each well of 96-well black and clear bottom culture plates (Costar). After the incubation for 24 h in the atmosphere of 6% CO2 at 37° C., 10 ul of NDP-MSH and test compounds diluted in DMSO were added to each well. The final DMSO concentration was 1%. After 4 h of incubation in the atmosphere of 6% CO2 at 37° C., 50 ul of Bright-Glo (Promega) was added to each well. Luciferase activity was measured by using L-Max luminometer (Molecular Device). The amount of luciferase activity induced by treatment with NDP-MSH was defined as 100% to obtain the relative efficacy of test compounds. The EC0.5 MSH was defined as the concentration of test compounds that results in half maximal activity of NDP-MSH. The EC50 was defined as the concentration of test compound that results in half maximal activity of its own.
`CCN(C)C(=O)[C@@H]1C[C@H](N(C(=O)[C@@H]2CCCO2)C2CCC(C)(C)CC2)CN1C(=O)[C@@H]1CN(C2CCOCC2)C[C@H]1c1ccc(Cl)cc1` [Example E5-2, (4S)-1-{[(3S,4R)-4-(4-chlorophenyl)-1-(tetrahydro-2H-pyran-4-yl)pyrrolidine-3-yl]carbonyl}-4-{(4,4-dimethylcyclohexyl)[(2S)-tetrahydrofuran-2-ylcarbonyl]amino}-N-ethyl-N-methyl-L-prolineamide]: the EC50 is 5 nM.

`CN(C)C(=O)[C@@H]1C[C@H](N(C(=O)C(C)(C)C(N)=O)C2CCC(C)(C)CC2)CN1C(=O)C1CN(C(C)(C)C)C[C@H]1c1ccc(Cl)cc1` (stereo partly drawn) [Example C12, N-{(3S,5S)-1-{[(3S,4R)-1-tert-butyl-4-(4-chlorophenyl)pyrrolidine-3-yl]carbonyl}-5-[(dimethylamino)carbonyl]pyrrolidine-3-yl}-N-(4,4-dimethylcyclohexyl)-2,2-dimethylmaloneamide]: the EC50 was 95 nM.

The compound `CC1CCC(N(C(=O)C2=CCOC2)C2CCN(C(=O)C3CNCC3c3ccc(Cl)cc3)C2)CC1` (centres unmarked) [Example E1-23] registered an EC50 of 21 nM.

With `CC1(C)CCC(N(C(=O)C(C)(C)C)[C@H]2C[C@@H](C(=O)Nc3ccccc3)N(C(=O)[C@@H]3CN(C(C)(C)C)C[C@H]3c3ccc(Cl)cc3)C2)CC1` [Example A99], the concentration giving a half-maximal response (EC50) stood at 69 nM. Compared with the last compound, the EC50 is about 3.3-fold higher.

In the case of `CC1(C)CCC(N(C(=O)C(C)(C)C)[C@H]2CCN(C(=O)[C@@H]3CN(C(C)(C)C)C[C@H]3c3ccc(Cl)cc3)C2)CC1` [Example A9, N-[(3S,4R)-1-{[(3S,4R)-1-T-butyl-4-(4-chlorophenyl)pyrrolidine-3-yl]carbonyl}pyrrolidine-3-yl]-N-(4,4-dimethylcyclohexyl)-2,2-dimethylpropaneamide], a half-maximal response (EC50) required 45 nM. This EC50 is about 1.5-fold lower than that of the compound before.

Consider `CCN(C)C(=O)[C@@H]1C[C@H](N(C(=O)C(C)(C)CS)C2CCC(C)(C)CC2)CN1C(=O)[C@@H]1CN(C(C)(C)C)C[C@H]1c1ccc(F)cc1F` [Example C14, (4S)-1-{[(3S,4R)-1-tert-butyl-4-(2,4-difluorophenyl)pyrrolidine-3-yl]carbonyl}-4-[(4,4-dimethylcyclohexyl)(3-mercapto-2,2-dimethylpropanoyl)amino]-N-ethyl-N-methyl-L-prolineamide], for which the EC50 was determined as 66 nM.

Compound `CCNC(=O)[C@@H]1C[C@H](N(C(=O)[C@@H]2CCCO2)C2CCC(C)(C)CC2)CN1C(=O)[C@@H]1CN(C(C)(C)C)C[C@H]1c1ccc(Cl)cc1` [Example A3, (4S)-1-{[(3S,4R)-1-tert-butyl-4-(4-chlorophenyl)pyrrolidine-3-yl]carbonyl}-4-{(4,4-dimethylcyclohexyl)[(2S)-tetrahydrofuran-2-ylcarbonyl]amino}-N-ethyl-L-prolineamide] returned an EC50 of 12 nM.

`CCNC(=N)N1C[C@@H](C(=O)N2CC[C@H](N(C(=O)C(C)C)[C@H]3CC[C@@H](C)CC3)C2)[C@H](c2ccc(Cl)cc2)C1` [Example E10, N-[(3S)-1-({(3S,4R)-4-(4-chlorophenyl)-1-[(ethylamino)(imino)methyl]pyrrolidine-3-yl}carbonyl)pyrrolidine-3-yl]2-methyl-N-(cis-4-methylcyclohexyl)propaneamide] registered an EC50 of 4 nM.

As for `CCN(C)C(=O)[C@@H]1C[C@H](N(C(=O)[C@@H]2CCCO2)C2CCC3(CC2)CC3)CN1C(=O)[C@@H]1CN(C(C)(C)C)C[C@H]1c1ccc(Cl)cc1` [Example A90], the EC50 came to 30 nM.

`CC1(C)CCC(N(C(=O)C(C)(C)C(N)=O)[C@H]2CCN(C(=O)C3CN(C(C)(C)C)C[C@H]3c3ccc(Cl)cc3)C2)CC1` (stereo partly drawn) [Example C1, N-[(3S)-1-{[(3S,4R)-1-tert-butyl-4-(4-chlorophenyl)pyrrolidine-3-yl]carbonyl}pyrrolidine-3-yl]-N-(4,4-dimethylcyclohexyl)-2,2-dimethylmaloneamide] came in with an EC50 of 38 nM.

`CN(C)C(=O)[C@@H]1C[C@H](N(C(=O)C(C)(C)C)C2CCC(F)(F)CC2)CN1C(=O)[C@@H]1CN(C(C)(C)C)C[C@H]1c1ccc(Cl)cc1` [Example A5, (4S)-1-{[(3S,4R)-1-tert-butyl-4-(4-chlorophenyl)pyrrolidine-3-yl]carbonyl}-4-[(4,4-difluorocyclohexyl)(2,2-dimethylpropanoyl)amino]-N,N-dimethyl-L-prolineamide] returned an EC50 of 33 nM.

Take `CC1CCC(N(C(=O)C(C)(C)C)C2CC(C(N)=S)N(C(=O)C3CN(C(C)(C)C)CC3c3ccc(F)cc3F)C2)CC1` (centres unmarked) [Example B28]: the response was half-maximal at 14 nM (EC50).

`CC1(C)CCC(N(C(=O)C(C)(C)C)[C@H]2CCN(C(=O)[C@@H]3CN(C(N)=O)C[C@H]3c3ccc(Cl)cc3)C2)CC1` [Example E2-3]: the EC50 amounted to 45 nM.

`CN(C)C(=O)[C@@H]1C[C@H](N(C(=O)C(C)(C)C)C2CCC(C)(C)CC2)CN1C(=O)[C@@H]1CN(C(C)(C)C)C[C@H]1c1ccc(F)cc1F` [Example A1, (4S)-1-{[(3S,4R)-1-tert-butyl-4-(2,4-difluorophenyl)pyrrolidine-3-yl]carbonyl}-4-[(4,4-dimethylcyclohexyl)(2,2-dimethylpropanoyl)amino]-N,N-dimethyl-L-prolineamide] registered an EC50 of 13 nM. Against the preceding compound, the EC50 is about 3.5-fold lower.

For the compound “S-(3-{[(3S,5S)-1-{[(3S,4R)-1-tert-butyl-4-(2,4-difluorophenyl)pyrrolidine-3-yl]carbonyl}-5-{[ethyl(methyl)amino]carbonyl}pyrrolidine-3-yl](4,4-dimethylcyclohexyl)amino}-2,2-dimethyl-3-oxopropyl)ethanethioate [Example C13]”, a half-maximal response (EC50) required 40 nM.

In the case of `CCNC(=O)[C@@H]1C[C@H](N(C(=O)C(C)(C)C)C2CCC(F)(F)CC2)CN1C(=O)[C@@H]1CN(C(C)(C)C)C[C@H]1c1ccc(Cl)cc1` [Example A6, (4S)-1-{[(3S,4R)-1-tert-butyl-4-(4-chlorophenyl)pyrrolidine-3-yl]carbonyl}-4-[(4,4-difluorocyclohexyl)(2,2-dimethylpropanoyl)amino]-N-ethyl-L-prolineamide], the response was half-maximal at 24 nM (EC50).

In turn, `CCN(C)C(=O)[C@@H]1C[C@H](N(C(=O)C(C)(C)CO)C2CCC(C)(C)CC2)CN1C(=O)[C@@H]1CN(C(C)(C)C)C[C@H]1c1ccc(Cl)cc1` [Example A4, (4S)-1-{[(3S,4R)-1-tert-butyl-4-(4-chlorophenyl)pyrrolidine-3-yl]carbonyl}-4-[(4,4-dimethylcyclohexyl)(3-hydroxy-2,2-dimethylpropanoyl)amino]-N-ethyl-N-methyl-L-prolineamide] had an EC50 of 3 nM.

Regarding `CC(C)C(=O)N(C1CCC(C)(C)CC1)C1CC(C=NO)N(C(=O)C2CN(C(C)(C)C)CC2c2ccc(F)cc2F)C1` (centres unmarked) [Example B33], the midpoint of the response, the EC50, lay at 65 nM.

The compound `COCC(C)(C)C(=O)N(C1CCC(C)(C)CC1)[C@H]1CCN(C(=O)[C@@H]2CN(C(C)(C)C)C[C@H]2c2ccc(Cl)cc2)C1` [Example C2, N-[(3S)-1-{[(3S,4R)-1-tert-butyl-4-(4-chlorophenyl)pyrrolidine-3-yl]carbonyl}pyrrolidine-3-yl]-N-(4,4-dimethylcyclohexyl)-3-methoxy-2,2-dimethylpropaneamide] had an EC50 of 11 nM.

As to `CC1(C)CCC(N(C(=O)C(C)(C)/C=N/O)[C@H]2CCN(C(=O)[C@@H]3CN(C(C)(C)C)C[C@H]3c3ccc(Cl)cc3)C2)CC1` [Example C3, (3E)-N-[(3S)-1-{[(3S,4R)-1-tert-butyl-4-(4-chlorophenyl)pyrrolidine-3-yl]carbonyl}pyrrolidine-3-yl]-N-(4,4-dimethylcyclohexyl)-3-(hydroxyimino)-2,2-dimethylpropaneamide], it took 15 nM to reach a half-maximal effect (EC50).

`CN1C[C@@H](C(=O)N2C[C@@H](N(C(=O)C(C)(C)C)[C@H]3CC[C@@H](C)CC3)C[C@H]2C(N)=O)[C@H](c2ccc(Cl)cc2)C1` [Example A7, (4S)-1-{[(3S,4R)-4-(4-Chlorophenyl)-1-methylpyrrolidine-3-yl]carbonyl}-4-[(2,2-dimethylpropanoyl)(cis-4-methylcyclohexyl)amino]-L-prolineamide] registered an EC50 of 24 nM. This EC50 lies about 1.6-fold higher than the previous one.

Compound `CC1(C)CCC(N(C(=O)C(C)(C)CO)[C@H]2CCN(C(=O)[C@@H]3CN(C(N)=O)C[C@H]3c3ccc(Cl)cc3)C2)CC1` [Example E2-2] showed an EC50 of 7 nM.

`CCN(C)C(=O)[C@@H]1C[C@H](N(C(=O)C(C)(C)COC)C2CCC(F)(F)CC2)CN1C(=O)C1CN(C(C)(C)C)C[C@H]1c1ccc(Cl)cc1` (stereo partly drawn) [Example C9, N-[(3S)-1-{[(3S,4R)-1-tert-butyl-4-(4-chlorophenyl)pyrrolidine-3-yl]carbonyl}pyrrolidine-3-yl]-N-[(4,4-difluorocyclohexyl)(3-methoxy-2,2-dimethylpropanoyl)amino]-N-ethyl-N-methyl-L-prolineamide] registered an EC50 of 41 nM.

`CC(=O)N(C1CCC(C)(C)CC1)[C@H]1C[C@@H](C(=O)N2CCOCC2)N(C(=O)[C@@H]2CN(C(C)(C)C)C[C@H]2c2ccc(Cl)cc2)C1` [Example A96] displayed an EC50 of 38 nM.

“(4S)-1-[(3S,4R)-1-tert-butyl-4-(4-chlorophenyl)pyrrolidine-3-yl]carbonyl)-4-{(4,4-dimethylcyclohexyl)[(2S)-tetrahydrofuran-2-ylcarbonyl]amino}-N,N-ethylmethyl-L-prolineamide [Example A2]” gave an EC50 of 16 nM. This EC50 is about 2.4-fold lower than that of the compound before.

The compound `CCN(C)C(=O)[C@@H]1C[C@H](N(C(=O)C(C)(C)C)C2CCC(F)(F)CC2)CN1C(=O)[C@@H]1CN(C(C)(C)C)C[C@H]1c1ccc(Cl)cc1` [Example A75] returned an EC50 of 79 nM. Against the preceding compound, the EC50 is about 4.9-fold higher.
